In ChEMBL document CHEMBL1144332, “1,2,4-Benzothiadiazine derivatives as alpha1 and 5-HT1A receptor ligands” (Bioorg Med Chem Lett, 2005):

Columns and labels:
[1] = biological target: T1, 5-hydroxytryptamine receptor 1A (Homo sapiens) (UniProt P08908); assay: Potency against the 5-hydroxytryptamine 1A receptor determined by using [35S]GTP-gamma-S, binding; type: functional
T1 sequence (whole entry): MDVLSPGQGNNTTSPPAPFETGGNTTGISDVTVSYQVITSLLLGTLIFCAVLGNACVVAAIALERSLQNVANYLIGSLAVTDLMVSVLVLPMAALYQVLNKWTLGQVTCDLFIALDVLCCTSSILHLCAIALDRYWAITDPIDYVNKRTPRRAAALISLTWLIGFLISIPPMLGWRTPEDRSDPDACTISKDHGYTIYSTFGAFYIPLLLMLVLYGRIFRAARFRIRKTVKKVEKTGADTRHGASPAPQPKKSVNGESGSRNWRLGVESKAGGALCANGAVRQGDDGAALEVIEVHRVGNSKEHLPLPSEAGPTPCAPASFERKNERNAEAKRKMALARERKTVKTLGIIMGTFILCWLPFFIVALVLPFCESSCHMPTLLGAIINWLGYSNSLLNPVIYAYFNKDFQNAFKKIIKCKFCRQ

[2] = biological target: T1, 5-hydroxytryptamine receptor 1A (Homo sapiens); assay: The maximal stimulation of [35S]GTP-gamma-S, binding (Emax) against the 5-hydroxytryptamine 1A receptor; type: functional
[3] = biological target: T2, Alpha-1B adrenergic receptor (Rattus norvegicus) (UniProt P15823); assay: Antagonist potency against the alpha-1B adrenergic receptor determined in isolated rat spleen; type: functional, tissue-based
T2 sequence (whole entry): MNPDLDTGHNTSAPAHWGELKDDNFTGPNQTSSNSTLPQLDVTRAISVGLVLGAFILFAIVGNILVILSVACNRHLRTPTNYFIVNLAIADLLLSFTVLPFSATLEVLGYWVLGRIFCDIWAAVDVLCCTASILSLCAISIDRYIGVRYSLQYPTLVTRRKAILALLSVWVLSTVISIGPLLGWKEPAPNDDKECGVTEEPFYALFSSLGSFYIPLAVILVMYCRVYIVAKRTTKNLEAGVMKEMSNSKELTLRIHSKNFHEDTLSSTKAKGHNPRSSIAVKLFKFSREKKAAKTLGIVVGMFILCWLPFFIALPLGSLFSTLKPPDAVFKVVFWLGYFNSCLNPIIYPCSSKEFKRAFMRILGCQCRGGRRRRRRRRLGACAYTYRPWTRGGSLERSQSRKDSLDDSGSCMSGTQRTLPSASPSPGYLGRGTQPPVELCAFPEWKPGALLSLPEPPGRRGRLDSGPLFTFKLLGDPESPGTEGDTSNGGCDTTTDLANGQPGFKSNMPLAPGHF

[4] = biological target: T3, 5-hydroxytryptamine receptor 1A (Homo sapiens, UniProt P08908); assay: Inhibitory constant value against the 5-hydroxytryptamine 1A receptor
T3 sequence (P08908 whole entry): T1 sequence (whole entry)

[5] = biological target: T4, Alpha-1A adrenergic receptor (Rattus norvegicus) (UniProt P43140); assay: Antagonist potency against the alpha-1A adrenergic receptor was determined in isolated rat prostatic vas deferens; type: functional, tissue-based
T4 sequence (whole entry): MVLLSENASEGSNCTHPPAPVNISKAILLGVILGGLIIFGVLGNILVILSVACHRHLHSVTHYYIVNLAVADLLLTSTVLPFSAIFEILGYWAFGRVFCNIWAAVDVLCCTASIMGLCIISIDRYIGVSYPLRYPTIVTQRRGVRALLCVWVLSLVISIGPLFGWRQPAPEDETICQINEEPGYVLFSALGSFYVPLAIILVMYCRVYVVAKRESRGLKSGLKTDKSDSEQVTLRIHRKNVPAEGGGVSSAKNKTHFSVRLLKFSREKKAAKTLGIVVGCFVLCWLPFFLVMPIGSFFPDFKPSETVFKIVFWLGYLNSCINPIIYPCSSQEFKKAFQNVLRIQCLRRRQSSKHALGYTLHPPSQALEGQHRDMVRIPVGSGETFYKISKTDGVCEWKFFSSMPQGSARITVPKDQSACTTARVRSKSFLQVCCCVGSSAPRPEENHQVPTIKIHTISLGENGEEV

[6] = biological target: Alpha adrenergic receptor 1A and 1B (Rattus norvegicus) (UniProt P15823+P43140); assay: Selectivity towards alpha 1B and alpha 1A adrenergic receptors; type: protein assay
[7] = biological target: T5, Alpha-1D adrenergic receptor (Rattus norvegicus) (UniProt P23944); assay: Antagonist potency against the alpha-1D adrenergic receptor was determined in isolated rat thoracic aorta; type: functional, tissue-based
T5 sequence (whole entry): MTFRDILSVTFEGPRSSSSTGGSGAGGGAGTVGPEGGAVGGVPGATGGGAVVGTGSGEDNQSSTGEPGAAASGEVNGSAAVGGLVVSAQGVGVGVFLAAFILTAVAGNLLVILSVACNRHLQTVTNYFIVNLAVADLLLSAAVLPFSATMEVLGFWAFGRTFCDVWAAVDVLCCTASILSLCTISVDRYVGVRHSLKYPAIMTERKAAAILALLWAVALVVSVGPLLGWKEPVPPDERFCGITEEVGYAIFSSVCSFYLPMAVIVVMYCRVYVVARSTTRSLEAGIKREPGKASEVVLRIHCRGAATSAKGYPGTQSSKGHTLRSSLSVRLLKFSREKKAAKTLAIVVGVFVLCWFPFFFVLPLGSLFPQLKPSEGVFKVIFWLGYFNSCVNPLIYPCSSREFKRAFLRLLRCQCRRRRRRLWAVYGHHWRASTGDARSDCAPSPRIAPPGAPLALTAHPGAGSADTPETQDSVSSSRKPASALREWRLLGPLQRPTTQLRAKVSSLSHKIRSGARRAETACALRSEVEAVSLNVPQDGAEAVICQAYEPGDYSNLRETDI

Rattus norvegicus = organism: Rattus norvegicus; assay: Selectivity towards alpha 1D and alpha 1B adrenergic receptors
[8] = biological target: Alpha adrenergic receptor 1A and 1D (Rattus norvegicus) (UniProt P23944+P43140); assay: Selectivity towards alpha 1D and alpha 1A adrenergic receptors; type: protein assay
[9] = Selectivity towards 5-hydroxytryptamine 1A and alpha 1D adrenergic receptors was determined
[10] = biological target: T3, 5-hydroxytryptamine receptor 1A; assay: Inhibitory constant value against 5-hydroxytryptamine 1A receptor

Row | pD2 [1] | Emax [2] | pKb [3] | Ki [4] | pKb [5] | Selectivity [6] | pKb [7] | Selectivity (Rattus norvegicus) | Selectivity [8] | Selectivity [9] | SMILES | Ki [10]
1 | 9.27 | 26 | 7.48 | 1.26 nM | – | – | – | – | – | – | COc1ccccc1N1CCN(CCN2C(=O)CC3(CCCC3)CC2=O)CC1 [BMY-7378] | –
2 | 6.92 | 23 | 5.09 | 9.12 nM | 5.05 | 1 | 5 | 1 | 1 | 1100 | COc1ccccc1N1CCN(CC2Nc3cc(Cl)ccc3S(=O)(=O)N2)CC1 (configuration not stated) | –
3 | – | – | 5.97 | 16.6 nM | 5.81 | 1.5 | 5.34 | 0.23 | 0.35 | 275 | COc1ccccc1N1CCN(CC2Nc3ccccc3S(=O)(=O)N2)CC1 (configuration not stated) | –
4 | – | – | 6.24 | – | 6 | 2 | 5.98 | 0.55 | 0.95 | < 10 | COc1ccccc1N1CCN(CC2Nc3cc(C)ccc3S(=O)(=O)N2)CC1 (configuration not stated) | –
5 | – | – | 6.17 | 46.8 nM | 5.28 | 8 | 7.75 | 38 | 295 | 0.38 | COc1ccccc1N1CCN(CC2=NS(=O)(=O)c3ccc(Cl)cc3N2)CC1 | –
6 | – | – | 6.05 | 107 nM | < 5 | > 11 | 5.5 | 0.28 | > 3 | – | COc1ccccc1N1CCN(CC2=NS(=O)(=O)c3ccc(C)cc3N2)CC1 | –

Row | SMILES | pD2 [1] | Emax [2] | pKb [3] | Ki [4] | pKb [5] | Selectivity [6] | pKb [7] | Selectivity (Rattus norvegicus) | Selectivity [8] | Selectivity [9] | Ki [10]
7 | COc1ccccc1N1CCN(CC2=NS(=O)(=O)c3ccccc3N2)CC1 | – | – | 5.46 | – | < 5 | > 3 | 7.59 | 135 | > 389 | < 0.03 | > 1000 nM
